Measurements as given in patent publication US20140243351A1, “DRUG FOR THE TREATMENT OF ALLERGIC RHINITIS COMPRISING PGD2 ANTAGONIST AND HISTAMINE ANTAGONIST” (Shionogi & Co., Ltd., priority 2011, published 2014).
Like-named read-outs stand apart in the source and are kept apart here. Marks after values point to notes of the source that are not given here.

Experiments:
[1] = test system: guinea pig rhinitis model induced with PGD2 and histamine; test: Evaluation Test 3, guinea pig rhinitis model induced with PGD2 and histamine, nasal airway resistance; format: in vivo; conditions: oral, each agent at 10 mg/kg; about 10 minutes after PGD2 + histamine challenge
Description: The pharmacological efficacy evaluation was made using 9 to 12 week-old male Harley guinea pigs in the following manner. Specifically, the guinea pigs were divided into the following groups: Group 1: Control Group (a group administered with a medium alone to a guinea pig); […] [table]

[2] = test system: patients with seasonal allergic rhinitis; test: Evaluation test on pharmacological efficacy on patients with seasonal allergic rhinitis (daytime nasal symptom scores)
Description: Each of the groups was asked to take each preparation in accordance with the following medication schedule. Thereafter, each of the patients was daily evaluated on daytime nasal symptoms, e.g. sneezing attacks, nasal discharge, nasal congestion, and nasal itching, in accordance with the following evaluation criteria. The results were analyzed. The lower the nasal symptom scores, more alleviated the nasal symptoms.
The medication was scheduled for a total of about 6 to 18 weeks, including a screening period of from 0 days to 12 weeks, a placebo introducing period of from 4 to 7 days, an ingestion period for each preparation of 4 weeks, and a post-observation period of 1 week.
Here, the evaluation criteria for sneezing, nasal discharge, and nasal congestion were conducted in 5-ranks from scores 0 to 4, and the evaluation criterion for nasal itching was conducted in 4-ranks of scores 0 to 3.
As to the nasal symptoms evaluated by each patient, average scores/day at time points 1, 2, 3, and 4 weeks after the administration, and the week just before the administration (for example, at a time point of 2 weeks after the administration refers to a one-week period from one week after the administration to the second week) were calculated, and changes since the start of the test were calculated and used in analysis. Here, in the between-group comparison distribution of the background factors, Fisher's exact test was used for nominal scale data, and Kruskal-Wallis test was used for continuous data or ordinal scale data. In both tests, the significance levels were set at 0.15 on both sides. In the analyses of nasal symptom items, the between-group comparison according to covariance analysis of an average change after two weeks from the administration, the between-group comparison according to covariance analysis of a change on a weekly basis, the between-group comparison of a change on a weekly basis using a linear model, and the between-group comparison according to chi-square test of improvement rate on a weekly basis were conducted. In all the comparisons, the significance level was set at 0.05 on both sides. In addition, as to the changes of nasal symptoms on a weekly basis, the between-group comparison according to covariance analysis for changes on a weekly basis using a linear model was conducted. Further, the between-group comparison according to chi-square test of improvement rate of each of the daytime nasal symptoms on a weekly basis was conducted. In the covariance analysis for a change on a weekly basis, in cases where data each week were not measured, the data were supplemented according to Last Observation Carried Forward (LOCF) method.

[3] = test system: guinea pig rhinitis model; test: Evaluation Test 1, guinea pig rhinitis model (OVA), nasal airway resistance, Formula (I) + fexofenadine hydrochloride; format: in vivo; conditions: single, 20 minutes after OVA challenge
Description: Guinea pig rhinitis models were generated by causing rhinitis-inflammation in 5 to 6 week-old male Harley guinea pigs in the following manner. Concretely, on day 0, the guinea pigs were intraperitoneally administered with cyclophosphamide diluted with physiological saline at 30 mg/kg. Two days later (on day 2), a mixed solution of aluminum hydroxide gel (10 mg), ovalbumin (OVA) (1 mg) and physiological saline was intraperitoneally administered to establish active sensitization. Thereafter, on day 9, a 1% OVA solution dissolved in physiological saline was intranasally challenged by 20 μL each to both the nostrils. Further, on day 16, a 2% OVA solution dissolved in physiological saline was intranasally challenged by 10 μL each to both the nostrils, thereby generating guinea pig rhinitis models that caused rhinitis-inflammation. Here, a control group that serves as a control was intranasally challenged by physiological saline in place of intranasally challenging by the OVA solution.
Specifically, prepared were the following: […]
Next, on day 23, a test substance listed in Table 7 was orally administered using a 0.5% methylcellulose (MC) solution as a medium, and one hour thereafter a 2% OVA solution dissolved in physiological saline was intranasally challenged by 10 μL each to both the nostrils (Group 1 was intranasally challenged by physiological saline in place of intranasal challenge by the OVA solution), and the nasal airway resistance was evaluated and analyzed. […] Here, nasal airway resistance (nRaw) is an average of specific airway resistance (sRaw) of 200 times or more breathing, and the analyzed values used in the comparisons of pharmacological efficacy are expressed as a percent change based on the nasal airway resistance measured before the intranasal challenge (100%) (IAR: immediately airway response). In addition, the between-group comparison was carried out according to one-sided t test, and the suppression percentage to Group 2 (Vehicle Group) was calculated by the following formula: […]

[4] = test system: seasonal allergic rhinitis patients; test: Clinical test (Ph 2, protocol 077) on seasonal allergic rhinitis, Non-Patent Publication 1; format: in vivo, human; conditions: beclomethasone versus loratadine, change per symptom from placebo
Description: For example, Journal of Asthma, 46, 878-883, 2009 (Non-Patent Publication 1) describes clinical test results (Ph 2, protocol 077) on seasonal allergic rhinitis for a patient group administered with montelukast as an LT receptor antagonist, a patient group administered with loratadine as a histamine H1 receptor antagonist, and a patient group administered with beclomethasone as an intranasal steroid (see Table 3 in the publication). Here, the nasal symptoms, i.e. sneezing, nasal discharge, nasal congestion, and nasal itching, after two weeks since the start of the oral administration are scored to be evaluated.
Furthermore, Table 3 of Non-Patent Publication 1 describes clinical test results on seasonal allergic rhinitis for an intranasal steroid agent beclomethasone and a histamine H1 receptor antagonist loratadine. According to the publication, it can be seen that a change in scores of nasal symptoms, i.e. sneezing, nasal discharge, nasal congestion, and nasal itching, after two weeks since the start of the oral administration, per symptom from the placebo group is such that the change in a loratadine group is 0.31, i.e. a difference between 0.53 and 0.22, and that the change in a beclomethasone group is 0.48, i.e. a difference between 0.70 and 0.22. In other words, it can be seen that the intranasal steroid agent was 1.55 times effective of the histamine H1 receptor antagonist. […]

[5] = test system: seasonal allergic rhinitis patients; conditions: after two weeks, cited from earlier work; for change in nasal symptom scores per symptom from the placebo group: sneezing, nasal discharge, nasal congestion, nasal itching
[6] = test system: seasonal allergic rhinitis patients; conditions: after two weeks; cited from earlier work
[7] = test system: seasonal allergic rhinitis patients; conditions: after two weeks; montelukast 10 mg, loratadine 10 mg, combination 10 mg each; cited from earlier work
[8] = after two weeks from administration

Cl.Cl.O=C(O)COCCN1CCN(C(c2ccccc2)c2ccc(Cl)cc2)CC1 (racemic) [Cetirizine Hydrochloride, 2-(2-{4-[(RS)-(4-chlorophenyl)phenylmethyl]piperazin-1-yl}ethoxy)acetic acid dihydrochloride]
suppression percentage of nasal airway resistance increase [1]: 20%
Change in Nasal Congestion Scores, Difference with Placebo Group [2, 8]: −0.13
Change in Nasal Discharge Scores, Difference with Placebo Group [2, 8]: −0.31**
Change in Nasal Itching Scores, Difference with Placebo Group [2, 8]: −0.28**
Change in Sneezing Scores, Difference with Placebo Group [2, 8]: −0.34***
Change in Total of Three Nasal Symptom Scores, Difference with Placebo Group ([2]; after two weeks from administration, dihydrochloride): −0.73**
Change in Total of Three Nasal Symptom Scores, Difference with Placebo Group ([2]; after two weeks from administration, listed as cetirizine, dihydrochloride): 0.73
change per symptom (total of three nasal symptom scores, from the placebo group) ([2]; after two weeks, worked out from Table 2): 0.24

CC(C)(C(=O)O)c1ccc(C(O)CCCN2CCC(C(O)(c3ccccc3)c3ccccc3)CC2)cc1.Cl (racemic) [fexofenadine hydrochloride, (±)-2-{4-[1-hydroxy-4-[4-(hydroxydiphenylmethyl)piperidino]butyl]phenyl}-2-methylpropanoic acid monohydrochloride]
suppression percentage of nasal airway resistance increase ([3]; Group 5, fexofenadine hydrochloride 20 mg/kg oral): 15%

CC(C)Oc1ccc(S(=O)(=O)N2CCN(c3ccc(-c4ncco4)c(OCC(=O)O)c3)CC2)cc1 [Formula (I), [2-(oxazol-2-yl)-5-(4-{4-[(propan-2-yl)oxy]phenylsulfonyl}piperazin-1-yl)phenoxy]acetic acid]
suppression percentage of nasal airway resistance increase ([3]; Group 3, Formula (I) 1 mg/kg oral): 21%
suppression percentage of nasal airway resistance increase ([3]; Group 4, Formula (I) 10 mg/kg oral): 47%
suppression percentage of nasal airway resistance increase [1]: 32%
Change in Nasal Congestion Scores, Difference with Cetirizine Hydrochloride Group [2, 8]: −0.03
Change in Nasal Congestion Scores, Difference with Placebo Group [2, 8]: −0.16*
Change in Nasal Discharge Scores, Difference with Cetirizine Hydrochloride Group [2, 8]: 0.13
Change in Nasal Discharge Scores, Difference with Placebo Group [2, 8]: −0.19**
Change in Nasal Itching Scores, Difference with Cetirizine Hydrochloride Group [2, 8]: 0.21**
Change in Nasal Itching Scores, Difference with Placebo Group [2, 8]: −0.06
Change in Sneezing Scores, Difference with Cetirizine Hydrochloride Group [2, 8]: 0.23**
Change in Sneezing Scores, Difference with Placebo Group [2, 8]: −0.11
Change in Total of Three Nasal Symptom Scores, Difference with Cetirizine Hydrochloride Group [2, 8]: 0.28
Change in Total of Three Nasal Symptom Scores, Difference with Placebo Group [2, 8]: −0.45*

C[C@H]1C[C@H]2[C@@H]3CCC4=CC(=O)C=C[C@]4(C)[C@@]3(Cl)[C@@H](O)C[C@]2(C)[C@@]1(O)C(=O)CO [beclomethasone]
effect of intranasal steroid agent relative to histamine H1 receptor antagonist [4]: 1.55 times
change in nasal symptom scores per symptom since the start of the administration [5]: 0.70
change in nasal symptom scores per symptom from the placebo group [5]: 0.48

CCOC(=O)N1CCC(=C2c3ccc(Cl)cc3CCc3cccnc32)CC1 [loratadine, ethyl 4-(8-chloro-5,6-dihydro-11H-benzo[5,6]cyclohepta[1,2-b]pyridin-11-ylidene)-1-piperidinecarboxylate]
change in nasal symptom scores per symptom since the start of the administration [5]: 0.53
change in nasal symptom scores per symptom from the placebo group [5]: 0.31
change per symptom of the nasal symptom scores since the start of the administration [6]: 0.40
change per symptom of the nasal symptom scores, based on the placebo group [6]: 0.09
change per symptom of the nasal symptom scores since the start of the administration [7]: 0.34
change per symptom of the nasal symptom scores, based on the placebo group [7]: 0.09
